Consider 22 molecules from US9206130B2, “Quinoline derivatives as AXL kinase inhibitors” (Max-Planck-Gesellschaft zur Förderung der Wissenschaften …, priority 2008, dated 2015).

For series [1], the target named is T1, wild type AXL (wtAXL) receptor tyrosine kinase (Homo sapiens, UniProt P30530).
T1 construct: WtAXL cDNA was cloned into vector pLXSN(ESK) and transfected into Phoenix E packaging cells; expressed in transfected cells; host or cells: NIH3T3 N7 mouse fibroblasts, retrovirally infected (clone 22)
T1 sequence (P30530 26-894): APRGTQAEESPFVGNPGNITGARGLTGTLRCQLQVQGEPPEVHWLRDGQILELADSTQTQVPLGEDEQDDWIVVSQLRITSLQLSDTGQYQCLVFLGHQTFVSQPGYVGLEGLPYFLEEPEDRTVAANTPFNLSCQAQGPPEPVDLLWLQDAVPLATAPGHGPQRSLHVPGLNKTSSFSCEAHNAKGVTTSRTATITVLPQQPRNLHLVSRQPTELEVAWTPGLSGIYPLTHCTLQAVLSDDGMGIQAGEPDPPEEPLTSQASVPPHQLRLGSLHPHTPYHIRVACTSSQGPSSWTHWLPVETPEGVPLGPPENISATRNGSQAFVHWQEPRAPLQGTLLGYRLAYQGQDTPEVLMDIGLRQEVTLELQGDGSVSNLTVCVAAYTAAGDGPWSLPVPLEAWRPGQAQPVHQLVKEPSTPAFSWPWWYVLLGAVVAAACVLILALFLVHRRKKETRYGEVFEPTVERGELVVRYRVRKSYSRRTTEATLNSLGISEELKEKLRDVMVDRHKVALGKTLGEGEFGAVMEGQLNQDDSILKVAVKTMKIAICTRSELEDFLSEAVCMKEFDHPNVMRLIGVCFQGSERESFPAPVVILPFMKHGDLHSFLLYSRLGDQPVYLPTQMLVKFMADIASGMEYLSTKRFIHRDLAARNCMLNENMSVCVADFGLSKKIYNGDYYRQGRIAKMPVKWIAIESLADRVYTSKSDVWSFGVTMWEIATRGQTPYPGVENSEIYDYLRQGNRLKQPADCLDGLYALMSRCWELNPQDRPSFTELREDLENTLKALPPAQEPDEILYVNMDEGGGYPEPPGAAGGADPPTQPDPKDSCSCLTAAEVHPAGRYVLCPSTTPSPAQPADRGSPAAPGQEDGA
Briefly: NIH-3T3-AXL cellular tyrosine kinase assay (inhibition of AXL phosphorylation). It is filed as cell-based. The following applies: AXL phosphorylation in NIH-3T3-AXL (clone 22) cells, serum-depleted, 2 h with compound, immunoprecipitation / anti-phosphotyrosine blot. The method, then: 3) Inhibitory Activity of Compounds on Axl Phosphorylation in NIH-3T3-AXL Cellular Tyrosine Kinase Assay
The viral supernatant was collected and used to infect target cells NIH3T3 N7. Monoclonal NIH3T3-AXL cell lines stably expressing wtAXL were generated by selecting retrovirally infected cells in medium containing puromycin (2 μg/ml) and subsequent clonal separation.
NIH-3T3-AXL Cellular Kinase Assay
Serial dilutions of compounds were added, and the cells were further incubated or 2 h. […] The clarified cell lysate (10 min at 13000 rpm at 4° C.) were used for immunoprecipitation. Equal amounts of protein were mixed with 2 μg anti-AXL polyclonal antibody (homemade) and 20 μl Protein A sepharose beads, and rotated for 6 hr at 4° C. After immunoprecipitation, the beads were washed three times with 1×HNTG (50 mM HEPES (pH 7.5), 150 mM NaCl, 10% Glycerol, 0.2% Triton X-100). The final pellet was suspended in 20 μl 2× Laemmli buffer, and boiled for 5 min at 100° C. […] The membrane was then incubated with anti-phosphotyrosine antibody (4G10) overnight at 4° C. followed by washing with 1×TBST buffer three times. After incubating membrane with HRP-conjugated anti-mouse secondary antibody for 1 hour at room temperature followed by washing with 1×TBST buffer three times, the proteins were visualized by ECL.

As for `Cc1cc(Oc2ccc(NS(=O)(=O)c3cc4ccccc4s3)c(F)c2)c2cccc(C(F)(F)F)c2n1` [Example C17, Benzo[b]thiophene-2-sulfonic acid [2-fluoro-4-(2-methyl-8-trifluoromethyl-quinolin-4-yloxy)-phenyl]-amide], the melting point (as a rule, the temperature of the solid-liquid transition) was 182 to 184 °C. In series [1], the IC50 (as a rule, the concentration that inhibits the measured activity by half) is more than 10 µM.
As to `COc1ccc(S(=O)(=O)Nc2ccc(Oc3cc(C)nc4c(C(F)(F)F)cccc34)c(F)c2)cc1F` [Example C09, 3-Fluoro-N-[3-fluoro-4-(2-methyl-8-trifluoromethyl-quinolin-4-yloxy)-phenyl]-4-methoxy-benzenesulfonamide], the melting point is 128 to 130 °C. The IC50 in series [1] is more than 10 µM.
The corresponding values for `COc1cc2nccc(Oc3ccc(NS(=O)(=O)c4cccc(-c5ccccc5)c4)cc3F)c2cc1OC` [Example A97, Biphenyl-3-sulfonic acid [4-(6,7-dimethoxy-quinolin-4-yloxy)-3-fluoro-phenyl]-amide] are 109 to 111 °C and 0.54 µM.
The like results for `Cc1cc(Oc2ccc(NS(=O)(=O)c3ccc(C)s3)c(F)c2)c2cc(F)ccc2n1` [Example B7, 5-Methyl-thiophene-2-sulfonic acid [2-fluoro-4-(6-fluoro-2-methyl-quinolin-4-yloxy)-phenyl]-amide] were, in that order, 151 to 153 °C and more than 10 µM.
In turn, `COc1cc2nccc(Oc3ccc(NS(=O)(=O)c4ccc(-c5ccccc5)cc4)c(C)c3)c2cc1OC` [Example A92, Biphenyl-4-sulfonic acid [4-(6,7-dimethoxy-quinolin-4-yloxy)-2-methyl-phenyl]-amide] registered a melting point of 228 to 230 °C. Moreover, the IC50 in series [1] was more than 10 µM.
The corresponding values for `Cc1cc(Oc2ccc(NS(=O)(=O)c3ccc4c(c3)CC(=O)N4C)c(F)c2)c2cccc(C(F)(F)F)c2n1` [Example C19, 1-Methyl-2-oxo-2,3-dihydro-1H-indole-5-sulfonic acid [2-fluoro-4-(2-methyl-8-trifluoro-methyl-quinolin-4-yloxy)-phenyl]-amide] are 225 to 226 °C and more than 10 µM.
The corresponding values for `COc1cc2nccc(Oc3ccc(NS(=O)(=O)Cc4ccccc4)c(F)c3)c2cc1OC` [Example A73, N-[4-(6,7-Dimethoxy-quinolin-4-yloxy)-2-fluoro-phenyl]-C-phenyl-methanesulfonamide] are 204 to 205 °C and more than 3 µM.
On to `COc1cc2nccc(Oc3ccc(NS(=O)(=O)c4ccccc4C(F)(F)F)c(C)c3)c2cc1OC` [Example A113, N-[4-(6,7-Dimethoxy-quinolin-4-yloxy)-2-methyl-phenyl]-2-trifluoromethyl-benzenesulfonamide], for which the melting point was 254 to 257 °C. Further, the IC50 in series [1] is more than 3 µM.
The corresponding values for `COc1cc2nccc(Oc3ccc(NS(=O)(=O)c4cnc(C)[nH]4)cc3)c2cc1OC` [Example A80, 2-Methyl-3H-imidazole-4-sulfonic acid [4-(6,7-dimethoxy-quinolin-4-yloxy)-phenyl]-amide] are 268 to 269 °C and more than 10 µM.
On to `COc1cc2nccc(Oc3ccc(NS(=O)(=O)c4cc(Cl)cc(Cl)c4OC)c(C)c3)c2cc1OC` [Example A111, 3,5-Dichloro-N-[4-(6,7-dimethoxy-quinolin-4-yloxy)-2-methyl-phenyl]-2-methoxy-benzenesulfonamide], for which the melting point is 159 to 162 °C. For the same molecule, the IC50 in series [1] was more than 3 µM.
The like results for `COc1ccc(S(=O)(=O)Nc2ccc(Oc3ccnc4cc(OC)c(OC)cc34)cc2F)cc1F` [Example A88, N-[4-(6,7-Dimethoxy-quinolin-4-yloxy)-2-fluoro-phenyl]-3-fluoro-4-methoxy-benzenesulfonamide] were, in that order, 230 to 232 °C and more than 1 µM.
The corresponding values for `COc1cc2nccc(Oc3ccc(NS(=O)(=O)CC(C)C)c(F)c3)c2cc1OC` [Example A72, 2-Methyl-propane-1-sulfonic acid [4-(6,7-dimethoxy-quinolin-4-yloxy)-2-fluoro-phenyl]-amide] are 175 to 176 °C and 0.58 µM.
The corresponding values for `COc1cc2nccc(Oc3ccc(NS(=O)(=O)c4ccccc4OC(F)(F)F)cc3OC)c2cc1OC` [Example A119, N-[4-(6,7-Dimethoxy-quinolin-4-yloxy)-3-methoxy-phenyl]-2-trifluoromethoxy-benzenesulfonamide] are 211 to 212 °C and more than 3 µM.
`COc1cc2nccc(Oc3ccc(NS(=O)(=O)c4cccc(-c5ccccc5)c4)cc3OC)c2cc1OC` [Example A138, Biphenyl-3-sulfonic acid [4-(6,7-dimethoxy-quinolin-4-yloxy)-3-methoxy-phenyl]-amide] showed a melting point of 108 to 110 °C. Besides, the IC50 in series [1] is more than 10 µM.
`COc1cc2nccc(Oc3ccc(NS(=O)(=O)c4ccc(Cl)cc4F)c(C)c3)c2cc1OC` [Example A153, 4-Chloro-N-[4-(6,7-dimethoxy-quinolin-4-yloxy)-2-methyl-phenyl]-2-fluoro-benzenesulfonamide] had a melting point of 248 to 250 °C. Moreover, the IC50 in series [1] is more than 10 µM.
Turning to `Cc1cc(Oc2ccc(NS(=O)(=O)c3ccc(Cl)s3)cc2)c2cc(F)ccc2n1` [Example B18, 5-Chloro-thiophene-2-sulfonic acid [4-(6-fluoro-2-methyl-quinolin-4-yloxy)-phenyl]-amide], the melting point lay within 170 to 172 °C. In series [1], the IC50 was more than 10 µM.
The corresponding values for `COc1cc2nccc(Oc3ccc(NS(=O)(=O)c4cc(F)cc(F)c4)c(F)c3)c2cc1OC` [Example A38, N-[4-(6,7-Dimethoxy-quinolin-4-yloxy)-2-fluoro-phenyl]-3,5-difluoro-benzenesulfonamide] are 243 to 245 °C and more than 10 µM.
`COc1cc2nccc(Oc3ccc(NS(=O)(=O)c4cccc(-c5ncccn5)c4)c(F)c3)c2cc1OC` [Example A102, N-[4-(6,7-Dimethoxy-quinolin-4-yloxy)-2-fluoro-phenyl]-3-pyrimidin-2-yl-benzenesulfonamide] displayed a melting point of 137 to 140 °C. In addition, the IC50 in series [1] is more than 1 µM.
The molecule `CCOc1ccc(S(=O)(=O)Nc2ccc(Oc3ccnc4cc(OC)c(OC)cc34)cc2F)cc1C` [Example A62, N-[4-(6,7-Dimethoxy-quinolin-4-yloxy)-2-fluoro-phenyl]-4-ethoxy-3-methyl-benzenesulfonamide] displayed a melting point of 158 to 160 °C. Besides, in series [1], the IC50 was found to be 0.47 µM.
The like results for `COc1cc2nccc(Oc3ccc(NS(=O)(=O)c4cc5ccccc5s4)cc3)c2cc1OC` [Example A83, Benzo[b]thiophene-2-sulfonic acid [4-(6,7-dimethoxy-quinolin-4-yloxy)-phenyl]-amide] were, in that order, 222 to 225 °C and more than 3 µM.
The like results for `COc1cc2nccc(Oc3ccc(NS(=O)(=O)c4cccc(-c5ccccc5)c4)c(F)c3)c2cc1OC` [Example A34, Biphenyl-3-sulfonic acid [4-(6,7-dimethoxy-quinolin-4-yloxy)-2-fluoro-phenyl]-amide] were, in that order, 193 to 195 °C and 0.43 µM.
In the case of `COc1cc2nccc(Oc3ccc(NS(=O)(=O)c4ccccc4OC(F)(F)F)cc3)c2cc1OC` [Example A114, N-[4-(6,7-Dimethoxy-quinolin-4-yloxy)-phenyl]-2-trifluoromethoxy-benzenesulfonamide], the melting point lay in the range of 222 to 223 °C. The IC50 in series [1] came out at 0.47 µM.
